Key:
[1] = system: FSDNA; test: Isothermal titration calorimetry of DNA binding, two types of independent binding sites; set-up: species or system fish; details: 25 mM MOPS, 5 mM NaCl, pH 7.0, 25 °C; for K A1 / n A1: high-affinity site; for K B1 / n B1: low-affinity site
Experimental: Cooperative self‐aggregation of DNA binders in combination with DNA binding makes data analysis complex because of the presence of coupled equilibria.^[ [46] ^] In the case of aggregation of charged species, the aggregation process tends to be very sensitive to salt concentration. We therefore studied self‐aggregation in buffer at a lower salt concentration (25 mM MOPS, pH 7.0, 5 mM NaCl) and found no indications of self‐aggregation. We therefore opted to carry out the ITC experiments in a buffer with a reduced salt concentration of 5 mM. Titrations were carried out in two parts, viz. a first titration focussing on the first binding event followed by a second titration focussing on the second binding event (Figures S23–25 with complex and DNA concentrations for each individual titration in Table S5). Figures S23 and S25 clearly show two binding events, as anticipated from UV‐visible titrations.
We analyzed the data using a model involving two types of independent binding sites, correcting for dilution heat effects in our custom data analysis software I2CITC^[ [45], [47] ^] […] The complexes also bind to a second lower affinity type of binding site with a size of approximately 2–3 basepairs with an affinity K B1 of the order of 10^5 M^−1 in an exothermic process. Based on the combination of binding site size and the exothermic interaction, we attribute the low‐affinity binding event to non‐specific binding of the cationic complexes to negatively charged DNA, supported by hydrophobic interactions between complexes. The binding site size of the higher affinity binding site exceeds the dimensions of the complexes of around five base pairs, as estimated from the docking studies (vide supra). […] Intriguingly, the relatively low ΔH A1 is in line with groove binding.^[ [48] ^]
Buffers employed in the experiments were 50 mM NaCl and 25 mM MOPS (adjusted to pH 7 with NaOH) and 5 mM NaCl and 25 mM MOPS (adjusted to pH 7 with NaOH). Solutions of DNA were prepared by diluting the DNA stock solutions (see UV‐visible titrations) as required. Complex solutions were prepared by dissolving 5 mg of the complex in 5 mL of buffer, then filtered through a 0.22 µm PES filter to ensure uniform solutions for ITC titration. Concentrations of solutions of complexes and of DNA were determined using UV‐visible spectroscopy. Calorimetric titrations were carried out at 25 °C on a MicroCal PEAQ‐ITC microcalorimeter (Malvern Instruments Ltd., Worcestershire, UK). The instrument was operated by applying a reference power of 10 μcal/s in high‐feedback mode, stirring the sample cell contents at 750 rpm, with a pre‐injection initial delay of 60 s. Solutions of complexes were loaded into the calorimeter injection syringe and DNA solutions were loaded into the sample cell. All experiments involved an initial injection of 0.4 µL in 0.8 s followed by 18 further injections of 2.0 µL in 4.0 s per injection into the calorimeter sample cell. Injections were spaced by at least 90 s to allow full recovery of the baseline. Raw data were treated using MicroCal PEAQ‐ITC Analysis Software (1.41) to generate both integrated heat effects per injection (ΔQ) and molar heat effects per injection (ΔH). Further data analysis was carried out using I2CITC.^[ [45], [47] ^]

[2] = Solubility limits in buffer from saturated solutions; format: physicochemical
Experimental: We next estimated the solubility limits of the complexes in buffer (25 mM MOPS, pH 7.0, 50 mM NaCl) from saturated solutions, using the molar absorption coefficients in Table S4 (see also Figures S14–18). […] These values mirror the trend predicted (via logP^[ [39] ^]) for the relative hydrophobicities of the cyclometalating ligands, which is ultimately controlled by the ligand substituent (H vs Me vs OMe vs Cl vs OCF3).

[3] = ITC dilution experiments (self-aggregation); format: physicochemical
From the text: To explore whether multiple binding modes are indeed present for these complexes interacting with DNA, we turned to isothermal titration calorimetry (ITC). ITC typically involves titrating a relatively concentrated solution of the binder into a more dilute solution of DNA (instead of titrating a relatively concentrated DNA solution into a more dilute solution of the binder). Therefore, the possible self‐aggregation of the DNA binders was explored through dilution experiments in which solutions of a complex at representative concentrations in buffer (25 mM MOPS, pH 7.0, 50 mM NaCl) were diluted into matched buffer in the calorimeter cell.
Further experiments at different complex concentrations confirm this sigmoidal behavior of the dilution heat effects around a critical concentration. […] Nevertheless, self‐assembled nanoparticles of organic fluorophores with micromolar CACs have been reported.^[ [43] ^]
CACs are typical for cooperative aggregation processes, such as micellization, and we therefore interpret the data as [Ir(L1)2(en)]Cl cooperatively self‐aggregating in these buffer conditions (25 mM MOPS, pH 7.0, 50 mM NaCl). While it is known that the determination of aggregation numbers from titration calorimetry data is challenging, other thermodynamic parameters are readily available. […] The molar enthalpy for self‐aggregation of −92 kJ mol^−1 (difference between average pre‐ and post‐CAC heat effects) indicates a highly exothermic self‐aggregation process accompanied by a T×Δ°S aggregation of […]. […]
Buffers employed in the experiments were 50 mM NaCl and 25 mM MOPS (adjusted to pH 7 with NaOH) and 5 mM NaCl and 25 mM MOPS (adjusted to pH 7 with NaOH). […] Concentrations of solutions of complexes and of DNA were determined using UV‐visible spectroscopy. […]

[4] = system: fish sperm DNA (FSDNA); test: UV-visible titrations with fish sperm DNA, multiple independent binding sites (MIS) model; details: 25 mM MOPS, 50 mM NaCl, pH 7.0, 25 °C; for K (apparent DNA-binding affinity): association constant
Experimental: We then studied the interactions of the complexes with double‐stranded DNA using UV‐visible titrations. Briefly, solutions of 44.14, 31.52, 35.17, 37.55, and 29.62 µM for the five complexes [Ir(L1‐5)2(en)]Cl, respectively, were titrated (in duplicate) with fish sperm DNA (FSDNA) at 25 °C (Figure 7 and Figures S19–22). The interactions between these complexes and DNA turned out not to involve a single type of binding site (vide infra). Nevertheless, the data from the UV‐visible titrations were provisionally analyzed globally using the multiple independent binding sites (MIS) model to determine apparent binding affinities and apparent binding site sizes (Table 4).
All solutions were prepared by dissolving solids in a buffer with stirring, then filtration through a 0.22 µm PES filter to remove solid particles and ensure uniform, saturated solutions before titration. Concentrations were determined using extinction coefficients. MOPS buffer was prepared by dissolving MOPS (3‐(N‐morpholino)propanesulfonic acid, NaCl (all obtained from Fisher and used as supplied) in deionized water (Elga Purelab Flex), adjusting the pH to 7.0 using a NaOH solution (pH of the buffer was determined using a Hanna Instruments pH211 microprocessor pH meter with a Bioblock Scientific pH probe) and making up the solution to 0.5 liter. A stock solution of fish sperm DNA was prepared by dissolving approximately 0.1 g of fish sperm DNA in 10 mL of the buffer. The resulting solution was dialyzed (3.5 kDa MWCO, Visking, Medicell International Ltd) against 0.5 liters of buffer. Following dialysis, the DNA concentration was determined using UV‐visible spectroscopy using a molar absorption coefficient ε260 nm = 12 800 M^−1 cm^−1.^[ [37] ^] Spectra and titrations were plotted in OriginLab Origin 2019b. The titration data were analyzed globally for each complex using an in‐house written version of the multiple independent binding sites model which also explicitly takes changing ligand concentrations into account.^[ [49] ^]

[5] = system: FSDNA; test: Steady-state and time-resolved luminescence in absence and presence of FSDNA; set-up: species or system fish; details: for luminescence intensity enhancement following the addition of DNA: λex = 410 nm, 25 mM MOPS, pH 7.0, 50 mM NaCl, uncorrected for dilution; for increase (lifetime) on DNA binding: time-resolved luminescence, with vs without FSDNA
Experimental: Finally, the influence of DNA binding on the luminescence properties of the complexes was investigated. Steady‐state fluorescence spectra (using λ ex = 410 nm) were recorded both in the absence and presence of FSDNA, using a buffer of 25 mM MOPS, pH 7.0, and 50 mM NaCl. First, the appearance and shape of the emission bands (Figure S26) were not influenced by binding to DNA; the position of the emission maxima and the peak shape were generally retained upon the addition of DNA. […] The time‐resolved luminescence measurements support the inhibition of excited state quenching processes leading to the observed increase in integrated intensity.
All reactions were performed with the use of a vacuum line and Schlenk techniques. Reagents were commercial grade and were used without further purification. ^1H, ^19F, and ^13C NMR spectra were recorded on a Bruker Avance dpx 500 MHz spectrometer and were recorded on d^6‐DMSO solutions. ^1H, ^13C{^1H} NMR chemical shifts (δ) were determined relative to internal tetramethylsilane, Si(CH3)4 and are given in ppm. Mass spectra were obtained by the staff at Cardiff University using a Waters Xevo G2‐XS QTof spectrometer. All photophysical data was obtained on a JobinYvon‐Horiba Fluorolog‐3 spectrometer fitted with a JY TBX picosecond photodetection module. The pulsed source was a Nano‐LED configured for 295 nm output operating at 1 MHz. Luminescence lifetime profiles were obtained using the JobinYvon–Horiba FluoroHub single photon counting module and the data fits yielded the lifetime values using DAS6 deconvolution software. IR spectra were recorded on an ATR‐equipped Shimadzu IRAffinity‐1 spectrophotometer. UV‐vis data were recorded as solutions on a Perkin Elmer Lamda20 spectrophotometer. The pH values of aqueous solutions were determined using a Hanna Instruments pH211 microprocessor pH meter with a Bioblock Scientific pH electrode.

[6] = buffer 25 mM MOPS, pH 7.0, 50 mM NaCl, saturated solutions, estimated via molar absorption coefficients

SMILES | K A1 [1] | n A1 [1] [bp^−1] | K B1 [1] | n B1 [1] | Solubility limit ([2]; pH 7) [µM] | critical aggregation concentration (CAC) ([3]; 25 mM MOPS, pH 7.0, 50 mM NaCl, 25 °C) [µM] | molar enthalpy for self‐aggregation ([3]; difference between average pre‐ and post‐CAC heat effects) [kJ/mol] | equilibrium constant for aggregation ([3]; from CAC, 25 mM MOPS, pH 7.0, 50 mM NaCl) [M⁻¹] | binding site size (apparent) [4] [base pairs] | K (apparent DNA-binding affinity) [4] | Solubility limit [2, 6] [µM] | luminescence intensity enhancement following the addition of DNA [5] | increase (lifetime) on DNA binding [5] [%]
NCCN.[Cl-].[Ir+3].[c-]1ccccc1-c1nc2ccccc2s1.[c-]1ccccc1-c1nc2ccccc2s1 [[Ir(L1)2(en)]Cl] | 239 10^6 M^−1 | 0.06 | 0.14 10^6 M^−1 | 0.46 | 978 | 2.1 | -92 | 480000 | 0.70 ± 0.15 | 4.3 ± 5.3 10^5 M^−1 | – | – | –
Cc1c[c-]c(-c2nc3ccccc3s2)cc1.Cc1c[c-]c(-c2nc3ccccc3s2)cc1.NCCN.[Cl-].[Ir+3] [[Ir(L2)2(en)]Cl] | 132 10^6 M^−1 | 0.03 | 0.41 10^6 M^−1 | 0.57 | – | – | – | – | 0.64 ± 0.05 | 4.2 ± 3.7 10^5 M^−1 | 327 | – | –
COc1c[c-]c(-c2nc3ccccc3s2)cc1.COc1c[c-]c(-c2nc3ccccc3s2)cc1.NCCN.[Cl-].[Ir+3] [[Ir(L3)2(en)]Cl] | 19 10^6 M^−1 | 0.07 | 0.13 10^6 M^−1 | 0.31 | – | – | – | – | 0.76 ± 0.04 | 4.6 ± 2.3 10^5 M^−1 | 739 | 40–65% | –
Clc1c[c-]c(-c2nc3ccccc3s2)cc1.Clc1c[c-]c(-c2nc3ccccc3s2)cc1.NCCN.[Cl-].[Ir+3] [[Ir(L4)2(en)]Cl] | – | – | – | – | – | – | – | – | 0.43 ± 0.19 | 0.8 ± 0.7 10^5 M^−1 | 100 | – | 75
FC(F)(F)Oc1c[c-]c(-c2nc3ccccc3s2)cc1.FC(F)(F)Oc1c[c-]c(-c2nc3ccccc3s2)cc1.NCCN.[Cl-].[Ir+3] [[Ir(L5)2(en)]Cl] | – | – | – | – | – | – | – | – | 0.92 ± 0.18 | 0.6 ± 0.3 10^5 M^−1 | 75 | 40–65% | 98
